We go through one substance from US20260174829A1, “METHODS OF REDUCING TYPE 2 CYTOKINE-MEDIATED INFLAMMATION USING NEUROMEDIN PEPTIDES” (Rutgers, The State University of New Jersey, priority 2018, published 2026).

In test [1] the test system is Nippostrongylus brasiliensis (Nb)-infected mice. In words: Nmb treatment (i.t.) of Nippostrongylus brasiliensis-infected mice. In kind it is in vivo, mouse. The protocol: FIGS. 6A-6E. […] (A), Nb-infected mice were treated with PBS or Nmb (i.t.) and ILC2s in the BAL were quantified. (B) Expression of IL-5 and IL-13 in the lungs of PBS or Nmb-treated mice was determined on day 7 post-Nb by Real-time PCR. (C) Eosinophils in the BAL were quantified and (D) worm burdens were determined on day 7 post-Nb infection. ILC2s were sort-purified from the lungs of control or baso-dep mice on day 7 post-Nb and cultured (O/N) with IL-2 and IL-7 in the presence or absence of Nmb and (E) IL-5 and IL-13 levels in culture supernatants were determined by ELISA. P values were determined by two-tailed Student's t-tests.
Methods for maintenance, recovery, infection and isolation of N. brasiliensis larvae were performed as previously described (Camberis et al., 2003, Animal model of Nippostrongylus brasiliensis and Heligmosomoides polygyrus. Current protocols in immunology/edited by John E. Coligan . . . [et al.] Chapter 19:Unit 19.12.). Mice were infected with ˜500 N. brasiliensis larvae by subcutaneous injection. For basophil depletion, WT and basophil-depleted mice were treated with 0.375 μg of diphtheria toxin i.p. every other day; mice were sacrificed 3-7 days post-N. brasiliensis infection. For neuromedin B treatment, mice were anesthetized and treated with 10 μg of neuromedin B (MP Biomedicals) dissolved in 50 μL of PBS administered via intratracheal instillation.
For BAL collection after necropsy, 5 mL of PBS were injected and aspirated from the trachea of each mouse, after collection the volume of BAL collected was recorded. Following BAL collection, lungs were collected at necropsy and single-cell suspensions for flow cytometric analysis were prepared as previously described (Jungblut et al., J Vis Exp 29:1266, 2009). Briefly, pulmonary tissue was minced and incubated in HBSS containing 2.5% of FBS, collagenase D (2 mg/mL, Roche) and DNAse I (80 U/mL, Roche) for 30 min at 37° C. Cell suspensions were filtered through a […] filter and analyzed by flow cytometry. Additionally sections of pulmonary tissue were collected for real-time PCR and histological analysis.
Cells were stained with monoclonal anti-mouse fluorescently conjugated antibodies: B220 (RA3-6B2), c-Kit (ACK2), CD3 (145-2C11), CD4 (GK1.5), CD5 (53-73), CD19 (1D3), NK1.1 (PK136), CD11b (MI/70), CD11c (N418), IgE (23G3), FcRI (MAR-1), CD49b (DX5), CD45 (30-F11), CD90 (5E10), CD127 (A7R34), F4/80 (BM8), γδTCR (eBioGL3), Siglec-F (E50-2440), LγδG (1A8), LγδC (AL-21), IL-5 (TRFK5), IL-13 (eBiol3A), Ter-119 (TER-119) from eBioscience or BD Biosciences. For intracellular staining, cells were incubated for 5 hours at 37° C. with Leukocyte Activation Cocktail, with BD GolgiPlug™ (BD Biosciences) following manufacturer's instructions. Basophils were analyzed as CD45^+CD3^−CD19^−FceR1^+CD49b^+. Eosinophils were analyzed as CD45^+CD11b^+Siglec-F^+CD11c^−. Neutrophils were analyzed as Live CD45^+CD11b^+LγδG^+. ILC2s were analyzed as CD45^+CD3^−CD19^−CD11b^−CD11c^−NK1.1^−B220^−CD5^−Ter-119^− γδ TCR^−CD90^+CD127^+IL-5^+IL-13^+. Samples were acquired on a BD Fortessa flow cytometer (BD Biosciences) and analyzed using Flowlo software (v10.0.5, Tree Star). Cell sorting was performed using a FACSAriaII (BD Bioscience).
RNA from sections of lung tissue was isolated by homogenization in TRIzol (Invitrogen) followed by phenol-chloroform extraction and isopropanol precipitation. cDNA was generated per standard protocol with Superscript reverse transcriptase (Invitrogen) and used as input for real-time PCR. Real-time data were analyzed using the ΔΔCT method using SYBR Green chemistry (Applied Biosystems) with β-actin serving as the endogenous housekeeping gene. All reactions were run on an ABI 7500 Fast Real-Time PCR System (Applied Biosystems). Samples were normalized to naïve controls.

Another test deals with NMBR expression by ILC2s. In words: NMBR expression by cultured lung ILC2s, flow cytometry. In kind it is cell-based, mouse. Conditions: ILC2s day 7 post-Nb, survival and/or activating cytokines, day 4 post-culture. The source says: FIG. 9. Basophils regulate NMBR expression. ILC2s were sort-purified from the lung of Nb-infected mice (day 7) and stimulated with survival cytokines (IL-7 and IL-2) and also with activated basophils, IL-4 or IL-33 overnight. NMBR expression was monitored by flow cytometric analysis post-culture. Data are presented as […] mean fluorescent intensity (GMFI). Statistical comparisons were done using a Student's t-test.
FIG. 14. Prostaglandin E2 upregulates expression of NMBR on lymphocytes. Lung ILC2s were sort-purified from the lungs of mice on day 7 post-Nb and cultured with a combination of survival cytokines (IL-2 and IL-7) and/or activating cytokines (IL-25 and IL-33). In addition, cultures were treated with NMB or prostaglandin E2 (PGE2) and the expression of NMBR was measured by flow cytometric analysis on day 4 post-culture. Statistical analysis was performed using a student's t-test. Negative NMBR staining as determined by an isotype control antibody is also shown (Isot).
NMBR expression by lung ILC2s was reduced when basophils are depleted following an Nb infection. To determine whether basophils directly mediate expression of NMBR or whether they operate through intermediate pathways, ILC2s were sort-purified from the lungs of Nb-infected mice (day 7) and cultured with the survival cytokines IL-2 and IL-7. Additionally, the ILC2s were cultured with activated basophils, IL-4, or IL-33 overnight. NMBR expression was subsequently monitored by flow cytometric analysis post-culture.
To better determine the mechanisms through which basophils regulate expression of NMBR on lymphocytes, ILC2s were cultured with a combination of survival and activating cytokines in the presence or absence of NMB or prostaglandin E2 (PGE2).
For orientation: Flow cytometry measures light scatter and fluorescence of single cells or particles in a stream.

The mark [2] stands for this setting: Nmb i.t. vs PBS, day 7, Real-time PCR.
[3] abbreviates: Nmb i.t. vs PBS, day 7 post-infection.

Take H2N-GNLWATGHFM-amide [Nmb]: in test [1] (setting [2]), the “IL-5 expression in the lungs” value was “reduced” and the “IL-13 expression in the lungs” value was “reduced”. Also, in test [1] (setting [3]), the “ILC2 responses (ILC2s in the BAL)” value is listed as “reduced”, the “eosinophilia (eosinophils in the BAL)” value was “reduced” and the infection-induced neutrophilia entry is reported as “no effect”. In addition, the “worm clearance (worm burdens)” value in test [1] (Nmb i.t. vs control mice, day 7 post-infection) was “failed to clear worms as efficiently as control mice”. The “NMBR expression by ILC2s” value in the test on NMBR expression by ILC2s is reported as “failed to upregulate”.
